This is an account of results in PubChem BioAssay AID1918999 (Molecular Pharmacology Branch, DTP, NCI, 2023).

A word on the viability, T/C: it is the ratio of treated to control. As usually defined, the IC50 is the concentration at which inhibition is half-maximal.

For this test, the system named is 556581-035-R-J1-PDC complex spheroid growth. Briefly: Anticancer human tumor 556581-035-R-J1-PDC patient-derived ovarian carcinoma cell line growth inhibition [AhR]. Particulars: for viability, T/C: stronger effect = lower value; for IC50: curve of compound. The text has this:
Multicellular complex tumor spheroid response to aryl hydrocarbon receptor antagonists in combination with a variety of drugs and investigational agents in selected tumor cell lines
The current study was undertaken to assess response to aryl hydrocarbon receptor antagonists in combination with standard-of-care drugs and investigational agents in solid tumor complex spheroid models. Complex spheroids include a stromal component modeled by human endothelial cells (HUVEC) and fibroblasts modeled by human mesenchymal stem cells (MSCs). The concentration ranges selected for each drug and investigational agent were based upon clinically achievable concentrations if the clinical Cmax of the agent was known.
Compounds. The drugs and investigational agents: BAY 2416964 (NSC825713), GNF351 (NSC835774), CH-223191 (NSC835775), CPI-455 (NSC825282), aza-TdCyd (NSC777586), decitabine (NSC127716), belinostat (NSC758774), entinostat (NSC756642), pevonedistat (NSC761192), tazemetostat (NSC777109), talazoparib (NSC765396), olaparib (NSC753686), selinexor (NSC780203), nedisertib (M3814, NSC802822), bortezomib (NSC756655), venetoclax (NSC766270), doxorubicin (NSC123127), elimusertib (BAY189344, NSC800525), ceralasertib (AZD6738, NSC777638), TAK-243 (NSC785004), alisertib (NSC759677), etoposide (NSC141540), topotecan (NSC609699), eribulin (NSC707389), gemcitabine (NSC613327), carboplatin (NSC241240), cisplatin (NSC119875), and SN-38 (NSC673596) were obtained from the National Cancer Institute (NCI) Developmental Therapeutics Program Chemical Repository (32). The FDA-approved anticancer drug set is available from the Developmental Therapeutics Program at https://dtp.cancer.gov/organization/dscb/obtaining/available plates.htm. […] The stock solutions were prepared in dimethyl sulfoxide (DMSO, Sigma-Aldrich, St. Louis, MO, cat. D2650), except for the platinum compounds which were prepared in saline (Quality Biological, Gaithersburg, MD, cat. 114-055-101), at 800-fold the tested concentration and stored at -70 degrees C prior to their use. All drugs and investigational agents were tested over a range starting from a high concentration at or near the clinical Cmax and decreasing in half-log increments. If the clinical Cmax for an agent had not been determined, the highest concentration tested was 10 microM (Table 1).
Cell Culture. All cells were maintained in an incubator at 37 degrees C and 5% CO2 with 95% humidity. The PDC lines were cultured according to standard operating procedures established by the NCI PDMR (https://pdmr.cancer.gov). Briefly, all PDCs were thawed and cultured in Matrigel-coated flasks prepared with a working solution of 1X Ham's F-12 nutrient mix, without supplementation (Invitrogen, Waltham, MA, cat. 11765054), 100 U/mL penicillin-streptomycin (Invitrogen, cat. 15140122), and 2.5% Matrigel (Corning Inc., Corning, NY, cat. 354248) for the first three passages. All PDCs were cultured in complete DMEM/F-12 media containing advanced DMEM/F-12 (Invitrogen, cat. 12634028), 4.9% defined fetal bovine serum, heat inactivated (HyClone Laboratories Inc., Logan, UT, cat. SH30070.03HI), 389 ng/mL hydrocortisone (Sigma-Aldrich, cat. H4001), 9.7 ng/mL human EGF recombinant protein (Invitrogen, cat. PHG0313), 23.4 microg/mL adenine (Sigma-Aldrich, cat. A2786), 97.3 U/mL penicillin-streptomycin (Invitrogen, cat. 15140122), 1.9 mM L-glutamine (Invitrogen, cat. 25030081), and 9.7 microM Y-27632 dihydrochloride (Tocris Bioscience, Bristol, United Kingdom, cat. 1254). The PDCs were cultured in complete DMEM/F12 media without 10 microM Y-27632 dihydrochloride for at least two passages prior to the screen. The established cell lines NCI-H1341 and […] were cultured in DMEM/F-12, HEPES (Invitrogen, cat. 11330032), 5% defined fetal bovine serum (HyClone Laboratories Inc., cat. SH30070.03), ITS premix universal culture supplement [insulin (5 microg/mL), transferrin (5 microg/mL), and selenious acid (5 ng/mL)] […]

Several values for one entry are separate records, joined by “and”; a condition that tells them apart may be missing. Equal entries are not always repeated.
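For viability, T/C in this document: compound exposure lasted 7 days.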

As for `CC(C)CC(NC(=O)C(Cc1ccccc1)NC(=O)c1cnccn1)B(O)O` (stereo not drawn), the IC50 is 5.87 nM and 5.61 nM and 4.98 nM. For the same molecule, for the setting “compound 0.000949 µM”, the viability, T/C was 105% and 95.7% and 87.9%. For the same molecule, the viability, T/C (compound 0.003 µM) is 101% and 97.8% and 87.1%. For the same molecule, the viability, T/C (compound 0.00949 µM) was 13.2% and 10.6% and 2.65%. The viability, T/C (compound 0.03 µM) is 1.02% and 0.36% and 1.1%. Moreover, under “compound 0.0949 µM”, the viability, T/C is 0.22% and 0.29% and 0.24%. Where the note is “compound 0.3 µM”, the viability, T/C is 0.28% and 0.29% and 0.34%.

On to `CC1(C)CCC(CN2CCN(c3ccc(C(=O)NS(=O)(=O)c4ccc(NCC5CCOCC5)c([N+](=O)[O-])c4)c(Oc4cnc5[nH]ccc5c4)c3)CC2)=C(c2ccc(Cl)cc2)C1`, for which the IC50 was over 10000 nM. Where the note is “compound 0.0316 µM”, the viability, T/C is 98.3% and 100% and 107%. Where the note is “compound 0.1 µM”, the viability, T/C is 102% and 104% and 108%. Further, where the note is “compound 0.316 µM”, the viability, T/C is 88.4% and 106% and 96.5%. In addition, the viability, T/C (compound 1 µM) was 90.5% (2×) and 107%. Where the note is “compound 3.16 µM”, the viability, T/C is 97.1% and 101% and 97.2%. Under “compound 10 µM”, the viability, T/C was 75% and 79.2% and 73.8%.

`CC1COCCN1c1cc(-c2ccnn2C)c2ccnc(-c3ccn[nH]3)c2n1` (stereo not drawn): the IC50 was 670 nM and 897 nM and 827 nM. The viability, T/C (compound 0.00316 µM) is 97.2% and 110% and 109%. The viability, T/C (compound 0.01 µM) was 101% and 105% and 102%. The viability, T/C (compound 0.0316 µM) was 105% and 95.4% and 98.4%. The viability, T/C (compound 0.1 µM) is 78.3% and 80.3% and 80.1%. Moreover, the viability, T/C (compound 0.316 µM) is 58.9% (2×) and 65.4%. The viability, T/C (compound 1 µM) is 45.2% and 48.2% and 48.4%.

Turning to `CCN(c1cc(-c2ccc(CN3CCOCC3)cc2)cc(C(=O)NCc2c(C)cc(C)[nH]c2=O)c1C)C1CCOCC1`, the IC50 was over 3000 nM. Besides, the viability, T/C (compound 0.00949 µM) was 98.6% and 100% and 96.3%. Where the note is “compound 0.03 µM”, the viability, T/C was 110% and 102% and 118%. Under “compound 0.0949 µM”, the viability, T/C was 97.2% and 104% and 89.5%. Moreover, the viability, T/C (compound 0.3 µM) was 96.6% and 91% and 102%. Besides, under “compound 0.949 µM”, the viability, T/C is 96.9% and 87.3% and 106%. In addition, the viability, T/C (compound 3 µM) was 102% and 91.7% and 108%.

Consider `CC[C@@]1(O)C(=O)OCc2c1cc1n(c2=O)Cc2cc3c(CN(C)C)c(O)ccc3nc2-1`, for which the half-inhibitory concentration (IC50) is > 100 nM and 86.9 nM. Under “compound 0.000316 µM”, the viability, T/C is 101% and 94.3% and 103%. Besides, the viability, T/C (compound 0.001 µM) was 103% and 90.5% and 99.5%. In addition, the viability, T/C (compound 0.00316 µM) is 91.3% and 91.8% and 95.9%. Further, where the note is “compound 0.01 µM”, the viability, T/C is 87.9% and 84.7% and 81.2%. The viability, T/C (compound 0.0316 µM) is 77.2% and 66.1% and 69.9%. Also, where the note is “compound 0.1 µM”, the viability, T/C was 54.1% and 51.6% and 47%.

Consider `CCc1c2c(nc3ccc(O)cc13)-c1cc3c(c(=O)n1C2)COC(=O)[C@]3(O)CC`, for which the IC50 is 13.6 nM and 21.3 nM and 13.7 nM. Besides, the viability, T/C (compound 0.000949 µM) is 89.1% and 96% and 90.5%. Moreover, where the note is “compound 0.003 µM”, the viability, T/C was 75% and 95% and 73.6%. For the same molecule, the viability, T/C (compound 0.00949 µM) is 54.5% and 61% and 53.9%. Further, the viability, T/C (compound 0.03 µM) was 39.9% and 46% and 40.5%. Besides, for the setting “compound 0.0949 µM”, the viability, T/C was 17.3% and 25.3% and 22.7%. For the same molecule, the viability, T/C (compound 0.3 µM) was 10.3% and 15.8% and 10.7%.

Consider `COc1cc(C2c3cc4c(cc3C(OC3OC5COC(C)OC5C(O)C3O)C3COC(=O)C23)OCO4)cc(OC)c1O` (stereo not drawn), for which the concentration for half-maximal inhibition (IC50) is 7210 nM and 8060 nM and 9560 nM. In addition, under “compound 0.0316 µM”, the viability, T/C was 104% and 107% and 99.2%. Besides, the viability, T/C (compound 0.1 µM) is 103% (2×) and 100%. For the same molecule, the viability, T/C (compound 0.316 µM) is 84.9% and 82.3% and 74.7%. For the same molecule, the viability, T/C (compound 1 µM) was 78.2% and 84.1% and 76.3%. Besides, the viability, T/C (compound 3.16 µM) is 62.1% and 66.4% and 67.5%. Further, the viability, T/C (compound 10 µM) is 45.1% and 44.2% and 47.1%.

In the case of `COc1cc(Nc2ncc3c(n2)-c2ccc(Cl)cc2C(c2c(F)cccc2OC)=NC3)ccc1C(=O)O`, the IC50 is over 10000 nM. For the same molecule, the viability, T/C (compound 0.0316 µM) was 81.1% and 79.8% and 91.3%. Moreover, the viability, T/C (compound 0.1 µM) is 75% and 75.9% and 76%. Moreover, the viability, T/C (compound 0.316 µM) is 68.9% and 62.2% and 64.4%. Further, under “compound 1 µM”, the viability, T/C was 79.5% and 64.8% and 63%. Further, the viability, T/C (compound 3.16 µM) is 62.2% and 61.8% and 58.2%. Moreover, the viability, T/C (compound 10 µM) was 54% and 52% and 52.1%.

For the molecule `COc1cccc2c1C(=O)c1c(O)c3c(c(O)c1C2=O)CC(O)(C(=O)CO)CC3OC1CC(N)C(O)C(C)O1` (stereo not drawn), the IC50 was 388 nM and 386 nM and 366 nM. Also, the viability, T/C (compound 0.0316 µM) was 90.7% and 86.7% and 84.5%. Further, the viability, T/C (compound 0.1 µM) was 89% and 78.2% and 76.5%. For the setting “compound 0.316 µM”, the viability, T/C was 58.8% and 57.2% and 55%. In addition, the viability, T/C (compound 1 µM) is 9.14% and 19.1% and 19.5%. For the same molecule, the viability, T/C (compound 3.16 µM) is 1.93% and 3.75% and 4.65%. The viability, T/C (compound 10 µM) was 3.8% and 2.01% and 3.67%.
